The record followed here is ChEMBL document CHEMBL3045161, “Evaluation of fungicides and biocontrol agents against grey blight disease of tea in the field” (2008).

Calls of active or inactive are those of the source. The calls are words filed in the database; no cut-off is given here.

Experiment [1] concerns Pseudopestalotiopsis theae. In words: Fungicidal activity against Pestalotiopsis theae infested tea plant in nursery assessed as reduction in plant casuality at 5 % sprayed on topsoil measured after 90 days. In kind it is functional, organism-based.
For experiment [2], the system named is Pseudopestalotiopsis theae. In words: Fungicidal activity against grey blight disease-causing Pestalotiopsis theae infested tea plantation assessed as disease incidence at 0.05 % applied as foliar spray (reference value: 39.2 %). In kind it is functional.
For experiment [3], the system named is Pseudopestalotiopsis theae. In words: Fungicidal activity against grey blight disease-causing Pestalotiopsis theae infested tea plantation assessed as green leaf yield which made tea at 0.05 % applied as foliar spray (reference value: 2884 kg/ha ). In kind it is functional.
The test system of experiment [4] is Pseudopestalotiopsis theae. In words: Fungicidal activity against Pestalotiopsis theae infested tea plant in nursery assessed as reduction in plant casuality at 0.05 % sprayed on topsoil measured after 90 days (reference value: 58 %). It is filed as functional. Set-up: scale not given: the % may be the effect or the level left.
Experiment [5] relates to Pseudopestalotiopsis theae. In words: Fungicidal activity against grey blight disease-causing Pestalotiopsis theae infested tea plantation assessed as green leaf yield which made tea compound applied on shears during hravesting (reference value: 3044 kg/ha). It is filed as functional.
The subject of experiment [6] is Pseudopestalotiopsis theae. In words: Fungicidal activity against Pestalotiopsis theae infested tea plant in nursery assessed as reduction in plant casuality at 3 % sprayed on topsoil measured after 90 days. It is filed as functional, organism-based.
Experiment [7] concerns Pseudopestalotiopsis theae. In words: Fungicidal activity against grey blight disease-causing Pestalotiopsis theae infested tea plantation assessed as disease incidence compound applied on shears during hravesting (reference value: 47 %). In kind it is functional.

Take `COC(=O)Nc1nc2ccccc2[nH]1` [CARBENDAZIM]: the outcome in experiment [1] was Active. Besides, the Activity in experiment [2] is reported as 6.6%; in experiment [4] it was 5%. Further, the Crop_yield in experiment [3] was determined as 3845 kg/ha.

On to `COC(=O)NC(=S)Nc1ccccc1NC(=S)NC(=O)OC` [THIOPHANATE METHYL], for which the Crop_yield in experiment [5] is 3457 kg/ha; in experiment [3], 3886 kg/ha. Also, the outcome in experiment [6] was Active. In addition, the Activity in experiment [2] is listed as 5.6%; in experiment [7], 17.5%; in experiment [4], 3%.
